≈ marks a conversion by molar mass, not a printed value.
Assays:
Rattus norvegicus = settings: mortality
Cyprinodon variegatus = settings: acute; duration: 96 hours; mortality
Pimephales promelas = settings: chronic/long-term; duration: 33 days; growth
Neomysis kadiakensis = settings: acute; duration: 96 hours; mortality
Apis mellifera = settings: acute, duration: 48 hours, mortality
Canidae = settings: chronic; duration: 1 years; oral; Dog Other; histopathology: nonneoplastic
Daphnia magna = settings: chronic/long-term; duration: 22 days; reproduction
Tagia sp. = settings: acute; duration: 14 days; mortality

COC(=O)CC(NC(=O)[C@@H](NC(=O)OC(C)C)C(C)C)c1ccc(Cl)cc1 (stereo partly specified) [Valifenalate]
LD50 (Rattus norvegicus; acute, oral): > 5000 mg/kg
NOAEL (Rattus norvegicus; reproduction developmental): 80 mg/kg-day
LC50 (Cyprinodon variegatus): > 15 mg/L
NOEC (Pimephales promelas): 12 mg/L
LC50 (Neomysis kadiakensis): 2.8 mg/L (≈ 7.02 µM)
LD50 (Anas platyrhynchos; acute, oral, unspecified, mortality): > 2250 mg/kg
NOAEL (Anas platyrhynchos; reproductive, reproduction): 167 mg/kg-day
LC50 (Anas platyrhynchos; short-term, oral, feed, mortality): > 2650 mg/kg-day
LD50 (Apis mellifera; dermal): > 100 µg/piece
LD50 (Apis mellifera; oral, unspecified): > 107 µg/piece
LC50 (Colinus virginianus; acute, oral, diet, mortality): > 1510 mg/kg-day
LD50 (Colinus virginianus; acute, oral, mortality): > 2250 mg/kg
NOAEL (Colinus virginianus; reproduction developmental, reproduction): 104 mg/kg-day
NOAEL (Canidae): 7 mg/kg-day
NOEC (Daphnia magna): 3.2 mg/L
LC50 (Tagia sp.): > 1000 mg/kg

Reference: EPA's ToxValDB 9.5 (doi:10.2903/j.efsa.2013.3253)
